Here are results for 17 compounds from US20240316022A1 (TYRA BIOSCIENCES, INC., priority 2021, published 2024).

Each structure is given as a SMILES string.

What all share (experiment): Kinase binding assay (kinase-tagged T7 phage, qPCR), Kd
In general terms: Quantitative PCR measures a nucleic acid by following its amplification.

The target of one experiment is T1, FGFR4 (Homo sapiens, UniProt P22455).
T1 construct: made in house; host or cells: E. coli derived from BL21, infected with T7 phage
To be noted: read-out: FGFR4 (Kd nM).

The target in the next experiment is T2, FGFR3 (Homo sapiens, UniProt P22607).
T2 construct: made in house; host or cells: E. coli derived from BL21, infected with T7 phage
Particulars: read-out: FGFR3 (Kd nM).

For the next experiment, the target named is T3, FGFR2 (Homo sapiens, UniProt P21802).
T3 construct: made in house; host or cells: E. coli derived from BL21, infected with T7 phage
To be noted: read-out: FGFR2 (Kd nM).

The next experiment has as its target T4, FGFR1 (Homo sapiens, UniProt P11362).
T4 construct: made in house; host or cells: E. coli derived from BL21, infected with T7 phage
Particulars: read-out: FGFR1 (Kd nM).

T1 sequence (P22455 22-802): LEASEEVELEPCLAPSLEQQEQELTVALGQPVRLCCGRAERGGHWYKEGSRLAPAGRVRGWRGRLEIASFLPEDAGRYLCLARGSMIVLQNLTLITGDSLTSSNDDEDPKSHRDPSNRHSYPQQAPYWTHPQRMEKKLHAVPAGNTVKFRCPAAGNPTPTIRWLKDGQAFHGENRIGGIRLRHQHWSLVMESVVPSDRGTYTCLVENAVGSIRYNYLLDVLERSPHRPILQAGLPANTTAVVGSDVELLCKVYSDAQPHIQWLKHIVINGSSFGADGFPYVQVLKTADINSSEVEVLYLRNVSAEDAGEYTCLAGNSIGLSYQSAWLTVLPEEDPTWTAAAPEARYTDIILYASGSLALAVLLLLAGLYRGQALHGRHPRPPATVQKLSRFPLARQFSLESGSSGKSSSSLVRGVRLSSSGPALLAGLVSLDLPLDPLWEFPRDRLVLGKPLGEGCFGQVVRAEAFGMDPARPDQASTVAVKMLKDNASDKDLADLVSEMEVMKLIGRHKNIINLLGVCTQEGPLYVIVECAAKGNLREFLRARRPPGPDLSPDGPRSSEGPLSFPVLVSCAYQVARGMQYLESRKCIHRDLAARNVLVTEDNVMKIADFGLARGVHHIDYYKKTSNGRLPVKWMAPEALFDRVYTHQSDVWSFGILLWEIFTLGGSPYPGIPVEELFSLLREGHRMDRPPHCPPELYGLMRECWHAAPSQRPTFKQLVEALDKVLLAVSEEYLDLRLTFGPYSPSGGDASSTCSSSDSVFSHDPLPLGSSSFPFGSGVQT
T3 sequence (P21802 22-821): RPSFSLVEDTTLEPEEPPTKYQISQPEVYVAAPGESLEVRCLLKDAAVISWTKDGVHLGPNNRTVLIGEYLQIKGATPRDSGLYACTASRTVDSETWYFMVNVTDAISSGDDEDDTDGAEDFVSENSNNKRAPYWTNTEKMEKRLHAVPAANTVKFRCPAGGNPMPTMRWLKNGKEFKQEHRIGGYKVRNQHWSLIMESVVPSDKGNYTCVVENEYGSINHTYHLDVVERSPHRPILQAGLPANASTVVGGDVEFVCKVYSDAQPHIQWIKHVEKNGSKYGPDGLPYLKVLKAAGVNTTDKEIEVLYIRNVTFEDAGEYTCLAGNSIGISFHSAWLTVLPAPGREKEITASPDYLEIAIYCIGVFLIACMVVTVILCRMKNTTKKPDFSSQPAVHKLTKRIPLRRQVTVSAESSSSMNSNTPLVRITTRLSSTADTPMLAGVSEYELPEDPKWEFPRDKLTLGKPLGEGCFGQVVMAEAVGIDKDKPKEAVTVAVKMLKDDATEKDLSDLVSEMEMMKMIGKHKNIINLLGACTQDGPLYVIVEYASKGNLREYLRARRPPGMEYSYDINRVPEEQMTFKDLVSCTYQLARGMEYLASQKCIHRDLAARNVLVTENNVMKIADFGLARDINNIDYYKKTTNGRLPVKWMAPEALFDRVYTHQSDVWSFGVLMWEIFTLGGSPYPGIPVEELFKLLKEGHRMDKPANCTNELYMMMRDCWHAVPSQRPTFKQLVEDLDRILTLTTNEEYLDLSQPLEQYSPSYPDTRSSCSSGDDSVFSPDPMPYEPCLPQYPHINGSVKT
T4 sequence (P11362 22-822): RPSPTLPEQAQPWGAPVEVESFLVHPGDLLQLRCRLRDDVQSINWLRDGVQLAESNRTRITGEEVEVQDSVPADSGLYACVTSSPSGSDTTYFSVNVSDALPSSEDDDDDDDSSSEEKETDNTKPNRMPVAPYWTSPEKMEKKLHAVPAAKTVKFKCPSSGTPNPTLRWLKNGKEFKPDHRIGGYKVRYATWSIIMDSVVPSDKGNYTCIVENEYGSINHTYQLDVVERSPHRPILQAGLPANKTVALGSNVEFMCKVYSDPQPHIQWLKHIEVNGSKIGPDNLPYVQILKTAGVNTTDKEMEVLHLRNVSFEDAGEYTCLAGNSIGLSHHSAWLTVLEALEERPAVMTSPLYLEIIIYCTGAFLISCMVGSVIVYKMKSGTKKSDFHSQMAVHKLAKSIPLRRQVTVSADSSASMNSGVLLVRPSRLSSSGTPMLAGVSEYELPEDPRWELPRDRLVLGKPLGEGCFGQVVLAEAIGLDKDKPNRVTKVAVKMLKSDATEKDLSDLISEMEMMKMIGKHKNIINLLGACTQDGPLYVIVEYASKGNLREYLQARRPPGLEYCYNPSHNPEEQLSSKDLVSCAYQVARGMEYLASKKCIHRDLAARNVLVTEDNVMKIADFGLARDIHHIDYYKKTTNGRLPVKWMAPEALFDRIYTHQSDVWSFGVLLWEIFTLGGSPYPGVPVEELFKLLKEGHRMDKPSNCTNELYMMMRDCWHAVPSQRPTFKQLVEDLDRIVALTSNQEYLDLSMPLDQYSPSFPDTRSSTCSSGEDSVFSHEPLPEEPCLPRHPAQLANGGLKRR
T2 sequence (P22607 23-806): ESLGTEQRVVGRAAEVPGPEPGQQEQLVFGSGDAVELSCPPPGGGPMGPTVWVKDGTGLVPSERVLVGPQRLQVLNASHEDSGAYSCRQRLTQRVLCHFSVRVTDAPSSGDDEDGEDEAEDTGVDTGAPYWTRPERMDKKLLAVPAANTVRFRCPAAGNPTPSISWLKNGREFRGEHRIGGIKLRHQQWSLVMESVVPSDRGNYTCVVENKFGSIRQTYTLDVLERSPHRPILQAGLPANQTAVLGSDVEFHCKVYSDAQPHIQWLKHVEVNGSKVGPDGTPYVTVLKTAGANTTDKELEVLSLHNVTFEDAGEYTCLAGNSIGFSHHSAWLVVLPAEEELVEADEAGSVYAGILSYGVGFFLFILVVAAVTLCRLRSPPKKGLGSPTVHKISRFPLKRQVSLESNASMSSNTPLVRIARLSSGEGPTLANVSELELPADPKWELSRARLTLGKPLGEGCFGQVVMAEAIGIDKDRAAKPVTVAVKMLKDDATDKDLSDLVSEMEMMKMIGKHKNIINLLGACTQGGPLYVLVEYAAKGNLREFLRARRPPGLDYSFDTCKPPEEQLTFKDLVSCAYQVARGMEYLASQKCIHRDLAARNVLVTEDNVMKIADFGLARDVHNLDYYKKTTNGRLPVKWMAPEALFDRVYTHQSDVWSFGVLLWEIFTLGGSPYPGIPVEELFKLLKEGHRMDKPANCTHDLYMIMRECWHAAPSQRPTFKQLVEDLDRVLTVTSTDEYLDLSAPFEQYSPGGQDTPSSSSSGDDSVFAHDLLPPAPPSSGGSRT

Take `COc1ncc(-c2n[nH]c3ccc(O[C@H](C)c4c(Cl)cncc4Cl)cc23)cc1C#N` [Example 74, 5-[5-[(1R)-1-(3,5-dichloro-4-pyridyl)ethoxy]-1H-indazol-3-yl]-2-methoxy-pyridine-3-carbonitrile]: the Kd lay within 0.1 to 100 nM on FGFR4, 0.1 to 100 nM at FGFR3, 250 to 1000 nM at FGFR2 and 250 to 1000 nM on FGFR1.

With `COCCOc1cc(C#N)cc(-c2n[nH]c3ccc(O[C@H](C)c4c(C)cnnc4C)cc23)c1` [Example 75, 3-[5-[(1R)-1-(3,5-dimethylpyridazin-4-yl)ethoxy]-1H-indazol-3-yl]-5-(2-methoxyethoxy)-benzonitrile], the Kd on FGFR4 is 0.1 to 100 nM; at FGFR3, 0.1 to 100 nM; at FGFR2, 100 to 250 nM; at FGFR1, 100 to 250 nM.

Take `COc1cc(-c2n[nH]c3ccc(O[C@H](C)c4c(C)cnnc4C)cc23)cc(C#N)c1OC` [Example 76, 5-[5-[(1R)-1-(3,5-dimethylpyridazin-4-yl)ethoxy]-1H-indazol-3-yl]-2,3-dimethoxy-benzonitrile]: the Kd is 0.1 to 100 nM at FGFR4, 100 to 250 nM at FGFR3, above 1000 nM on FGFR2 and 250 to 1000 nM on FGFR1.

Regarding `Cc1cc(-c2n[nH]c3ccc(O[C@H](C)c4c(C)cnnc4C)cc23)cc(C#N)c1F` [Example 77, 5-[5-[(1R)-1-(3,5-dimethylpyridazin-4-yl)ethoxy]-1H-indazol-3-yl]-2-fluoro-3-methyl-benzonitrile], the Kd lay in the range of 0.1 to 100 nM on FGFR4, 0.1 to 100 nM on FGFR3, 100 to 250 nM at FGFR2 and 250 to 1000 nM at FGFR1.

Turning to `Cc1cnnc(C)c1[C@@H](C)Oc1ccc2[nH]nc(-c3cc(C#N)cc(OCC4CC4)c3)c2c1` [Example 78, 3-(cyclopropylmethoxy)-5-[5-[(1R)-1-(3,5-dimethylpyridazin-4-yl)ethoxy]-1H-indazol-3-yl]benzonitrile], the Kd on FGFR4 is 0.1 to 100 nM; at FGFR3 it was 250 to 1000 nM; on FGFR2, above 1000 nM; at FGFR1 it was above 1000 nM.

Regarding `COc1c(C)cc(-c2n[nH]c3ccc(O[C@H](C)c4c(C)cnnc4C)cc23)cc1C#N` [Example 80, 5-[5-[(1R)-1-(3,5-dimethylpyridazin-4-yl)ethoxy]-1H-indazol-3-yl]-2-methoxy-3-methyl-benzonitrile], the Kd on FGFR4 was 0.1 to 100 nM; on FGFR3, 0.1 to 100 nM; at FGFR2, 0.1 to 100 nM; on FGFR1 it was 100 to 250 nM.

As to `COc1cc(-c2n[nH]c3ccc(O[C@H](C)c4c(Cl)cncc4Cl)cc23)cc(C#N)c1OC` [Example 81, 5-[5-[(1R)-1-(3,5-dichloro-4-pyridyl)ethoxy]-1H-indazol-3-yl]-2,3-dimethoxy-benzonitrile], the Kd was 0.1 to 100 nM on FGFR4, above 1000 nM on FGFR3, above 1000 nM on FGFR2 and above 1000 nM at FGFR1.

As to `Cc1cnnc(C)c1[C@@H](C)Oc1ccc2[nH]nc(-c3cc(C#N)cc(C#N)c3)c2c1` [Example 83, 5-[5-[(1R)-1-(3,5-dimethylpyridazin-4-yl)ethoxy]-1H-indazol-3-yl]benzene-1,3-dicarbonitrile], the Kd on FGFR4 is 0.1 to 100 nM; on FGFR3 it was 250 to 1000 nM; on FGFR2, above 1000 nM; at FGFR1, 250 to 1000 nM.

Turning to `Cc1cnnc(C)c1[C@@H](C)Oc1ccc2[nH]nc(-c3cc(C#N)cc(C4CC4)c3)c2c1` [Example 84, 3-cyclopropyl-5-[5-[(1R)-1-(3,5-dimethyl-pyridazin-4-yl)ethoxy]-1H-indazol-3-yl]benzonitrile], the Kd was 0.1 to 100 nM at FGFR4, 0.1 to 100 nM at FGFR3, 250 to 1000 nM on FGFR2 and 250 to 1000 nM on FGFR1.

In the case of `COc1c(C#N)cc(-c2n[nH]c3ccc(O[C@H](C)c4c(C)cnnc4C)cc23)cc1C#N` [Example 85, 5-[5-[(1R)-1-(3,5-dimethylpyridazin-4-yl)ethoxy]-1H-indazol-3-yl]-2-methoxy-benzene-1,3-dicarbonitrile], the Kd at FGFR4 was 0.1 to 100 nM; at FGFR3 it was 250 to 1000 nM; at FGFR2, above 1000 nM; at FGFR1, above 1000 nM.

Take `Cc1cnnc(C)c1[C@@H](C)Oc1ccc2[nH]nc(-c3cc(C#N)cc(C4CCCC4)c3)c2c1` [Example 86, 3-cyclopentyl-5-[5-[(1R)-1-(3,5-dimethylpyridazin-4-yl)ethoxy]-1H-indazol-3-yl]benzonitrile]: the Kd at FGFR4 is 250 to 1000 nM; at FGFR3 it was above 1000 nM; at FGFR2, above 1000 nM; at FGFR1 it was above 1000 nM.

For the compound `Cc1cnnc(C)c1[C@@H](C)Oc1ccc2[nH]nc(-c3cc(C#N)cc(N4CC5(CN(C)C5)C4)c3)c2c1` [Example 87, 3-[5-[(1R)-1-(3,5-dimethylpyridazin-4-yl)ethoxy]-1H-indazol-3-yl]-5-(6-methyl-2,6-diazaspiro[3.3]heptan-2-yl)benzonitrile], the Kd on FGFR4 is 250 to 1000 nM; at FGFR3 it was 250 to 1000 nM; at FGFR2 it was 250 to 1000 nM; on FGFR1, above 1000 nM.

For `COc1ncc(-c2n[nH]c3ccc(O[C@H](C)c4c(C)cnnc4C)cc23)cc1C#N` [Example 88, 5-[5-[(1R)-1-(3,5-dimethylpyridazin-4-yl)ethoxy]-1H-indazol-3-yl]-2-methoxy-pyridine-3-carbonitrile], the Kd at FGFR4 is 0.1 to 100 nM; on FGFR3, 100 to 250 nM; at FGFR2, 250 to 1000 nM; at FGFR1, 250 to 1000 nM.

As for `Cc1cnnc(C)c1[C@@H](C)Oc1ccc2[nH]nc(-c3cnc(N(C)C)c(C#N)c3)c2c1` [Example 89, (R)-2-(dimethylamino)-5-(5-(1-(3,5-dimethylpyridazin-4-yl)ethoxy)-1H-indazol-3-yl)nicotinonitrile], the Kd at FGFR4 fell in the range of 0.1 to 100 nM; on FGFR3, 0.1 to 100 nM; at FGFR2 it was 100 to 250 nM; at FGFR1, 100 to 250 nM.

With `Cc1cnnc(C)c1[C@@H](C)Oc1ccc2[nH]nc(-c3cc(C#N)cc(C4CCOC4)c3)c2c1` (stereo partly drawn) [Example 90, 3-(5-((R)-1-(3,5-dimethylpyridazin-4-yl)ethoxy)-1H-indazol-3-yl)-5-(tetrahydrofuran-3-yl)benzonitrile], the Kd at FGFR4 lay within 0.1 to 100 nM; on FGFR3, 0.1 to 100 nM; on FGFR2, 0.1 to 100 nM; at FGFR1 it was 250 to 1000 nM.

As for `Cc1cnnc(C)c1[C@H](C)Oc1ccc2[nH]nc(-c3cc(C#N)cc(N4CC5(CN(C)C5)C4)c3)c2c1` [Example 91, (S)-3-(5-(1-(3,5-dimethylpyridazin-4-yl)ethoxy)-1H-indazol-3-yl)-5-(6-methyl-2,6-diazaspiro[3.3]heptan-2-yl)benzonitrile], the Kd at FGFR4, at FGFR3, on FGFR2 and on FGFR1 was above 1000 nM throughout.

Turning to `COc1cc(-c2n[nH]c3ccc(O[C@H](C)c4c(C)cnnc4C)cc23)cc(C#N)c1F` [Example 93, (R)-5-(5-(1-(3,5-dimethylpyridazin-4-yl)ethoxy)-1H-indazol-3-yl)-2-fluoro-3-methoxybenzonitrile], the Kd at FGFR4 was 100 to 250 nM; at FGFR3, above 1000 nM; at FGFR2 it was above 1000 nM; on FGFR1, above 1000 nM.

As a reminder, the Kd is a measure of binding affinity in units of concentration.
